Test results from ChEMBL document CHEMBL4312013 (Eur J Med Chem, 2020).
In brackets after ≈: the same amount, converted by molar mass. Blank lines part the entries; values can stand above or below the molecule they belong to. Activity calls are given as the source filed them. The rule behind the calls is not given here.

Key:
Enterococcus hirae = test: microbe, parasite or virus in culture; format: functional; settings: ATCC 10541, 18 h
Staphylococcus aureus [1] = test: microbe, parasite or virus in culture; format: functional; settings: ATCC 29213, 18 h
Escherichia coli [2] = test: microbe, parasite or virus in culture; format: functional; settings: ATCC 25922, 18 h
[3] = tested on: Staphylococcus epidermidis; test: microbe, parasite or virus in culture; format: functional; settings: ATCC 12228, 18 h
Pseudomonas aeruginosa [4] = test: microbe, parasite or virus in culture; format: functional; settings: ATCC 15442, 18 h
Staphylococcus aureus [5] = test: microbe, parasite or virus in culture; format: functional; settings: ATCC 6538, 18 h
Escherichia coli [6] = test: microbe, parasite or virus in culture; format: functional; settings: NCTC 8196, 18 h
Staphylococcus aureus [7] = test: microbe, parasite or virus in culture; format: functional; settings: NCTC 4163, 18 h
Pseudomonas aeruginosa [8] = test: microbe, parasite or virus in culture; format: functional; settings: ATCC 27853, 18 h
SW-620 [9] = test: Reduction of IL-6 level in human SW620 cells at antiproliferative IC50 incubated for 72 hrs by ELISA relative to control; format: functional
SW480 [10] = test: Reduction of IL-6 level in human SW480 cells at antiproliferative IC50 incubated for 72 hrs by ELISA relative to control; format: functional
HaCaT [11] = test: Reduction of IL-6 level in human HaCaT cells at antiproliferative IC50 incubated for 72 hrs by ELISA relative to control; format: cell-based
HaCaT [12] = test: Cytotoxicity against human HaCaT cells assessed as reduction in cell viability incubated for 72 hrs by MTT assay; format: cell-based
SW480 [13] = test: Antiproliferative activity against human SW480 cells assessed as reduction in cell viability incubated for 72 hrs by MTT assay; format: functional, cell-based; settings: SW480, 72 h
PC-3 [14] = test: Antitumor activity against human PC3 cells assessed as reduction in IL-6 level at antiproliferative IC50 incubated for 72 hrs by ELISA relative to control; format: functional
PC-3 [15] = test: Cytotoxicity against human PC3 cells at 10 uM incubated for 72 hrs by LDH release assay (reference value: […]); format: functional
HaCaT [16] = test: Induction of apoptosis in human HaCaT cells at antiproliferative IC50 incubated for 72 hrs by annexin V FITC and PI staining based flow cytometry; format: cell-based
PC-3 [17] = test: Cytotoxicity against human PC3 cells at 20 uM incubated for 72 hrs by LDH release assay (reference value: […]); format: functional
PC-3 [18] = test: Induction of apoptosis in human PC3 cells assessed as early apoptotic cells at antiproliferative IC50 incubated for 72 hrs by annexin V FITC and PI staining based flow cytometry (reference value: […]); format: functional
SW-620 [19] = test: Cytotoxicity against human SW620 cells at 60 uM incubated for 72 hrs by LDH release assay (reference value: 4.2 %); format: functional
PC-3 [20] = test: Cytotoxicity against human PC3 cells at 60 uM incubated for 72 hrs by LDH release assay (reference value: […]); format: functional
PC-3 [21] = test: Induction of apoptosis in human PC3 cells assessed as necrotic cells at antiproliferative IC50 incubated for 72 hrs by annexin V FITC and PI staining based flow cytometry (reference value: […]); format: functional
SW480 [22] = test: Cytotoxicity against human SW480 cells at 40 uM incubated for 72 hrs by LDH release assay (reference value: […]); format: functional
SW480 [23] = test: Cytotoxicity against human SW480 cells at 10 uM incubated for 72 hrs by LDH release assay (reference value: […]); format: functional
SW480 [24] = test: Cytotoxicity against human SW480 cells at 20 uM incubated for 72 hrs by LDH release assay (reference value: […]); format: functional
SW480 [25] = test: Cytotoxicity against human SW480 cells at 60 uM incubated for 72 hrs by LDH release assay (reference value: […]); format: functional
PC-3 [26] = test: Induction of apoptosis in human PC3 cells assessed as viable cells at antiproliferative IC50 incubated for 72 hrs by annexin V FITC and PI staining based flow cytometry (reference value: 95.1 %); format: functional
PC-3 [27] = test: Induction of apoptosis in human PC3 cells assessed as late apoptotic cells at antiproliferative IC50 incubated for 72 hrs by annexin V FITC and PI staining based flow cytometry (reference value: […]); format: functional
SW-620 [28] = test: Cytotoxicity against human SW620 cells at 40 uM incubated for 72 hrs by LDH release assay (reference value: 4.2 %); format: functional
SW-620 [29] = test: Induction of apoptosis in human SW620 cells at antiproliferative IC50 incubated for 72 hrs by annexin V FITC and PI staining based flow cytometry; format: functional
SW-620 [30] = test: Cytotoxicity against human SW620 cells at 20 uM incubated for 72 hrs by LDH release assay (reference value: 4.2 %); format: functional
SW-620 [31] = test: Cytotoxicity against human SW620 cells at 10 uM incubated for 72 hrs by LDH release assay (reference value: 4.2 %); format: functional
PC-3 [32] = test: Cytotoxicity against human PC3 cells at 40 uM incubated for 72 hrs by LDH release assay (reference value: […]); format: functional

- MIC (Enterococcus hirae): 512 µg/mL (≈ 3040 µM)
- MIC (Staphylococcus aureus [1]): > 512 µg/mL
- MIC (Escherichia coli [2]): 512 µg/mL (≈ 3040 µM)
- MIC [3]: 512 µg/mL (≈ 3040 µM)
- MIC (Pseudomonas aeruginosa [4]): 512 µg/mL (≈ 3040 µM)
- MIC (Staphylococcus aureus [5]): > 512 µg/mL
- MIC (Escherichia coli [6]): > 512 µg/mL
- MIC (Staphylococcus aureus [7]): > 512 µg/mL
- MIC (Pseudomonas aeruginosa [8]): 512 µg/mL (≈ 3040 µM)
SMILES: CC(C)=CCC/C(C)=C/C(=O)O

- MIC (Enterococcus hirae): > 512 µg/mL
- MIC (Staphylococcus aureus [1]): > 512 µg/mL
- MIC (Escherichia coli [2]): > 512 µg/mL
- MIC [3]: > 512 µg/mL
- MIC (Pseudomonas aeruginosa [4]): > 512 µg/mL
- MIC (Staphylococcus aureus [5]): > 512 µg/mL
- MIC (Escherichia coli [6]): > 512 µg/mL
- MIC (Staphylococcus aureus [7]): > 512 µg/mL
- MIC (Pseudomonas aeruginosa [8]): > 512 µg/mL
SMILES: C/C=C/C(=O)O [CROTONIC ACID]

- IC50 (SW480 [13]): 750 nM
SMILES: COc1cccc2c1C(=O)c1c(O)c3c(c(O)c1C2=O)C[C@@](O)(C(=O)CO)C[C@@H]3O[C@H]1C[C@H](N)[C@H](O)[C@H](C)O1 [DOXORUBICIN]
- Activity (SW-620 [9]): Active
- Activity (SW480 [10]): Active
- Activity (HaCaT [11]): Active
- IC50 (HaCaT [12]): 290 nM
- Activity (PC-3 [14]): Active

- MIC (Enterococcus hirae): 512 µg/mL (≈ 1840 µM)
- MIC (Staphylococcus aureus [1]): 128 µg/mL (≈ 460 µM)
- MIC (Escherichia coli [2]): > 512 µg/mL
- MIC [3]: 512 µg/mL (≈ 1840 µM)
- MIC (Pseudomonas aeruginosa [4]): 512 µg/mL (≈ 1840 µM)
- MIC (Staphylococcus aureus [5]): 128 µg/mL (≈ 460 µM)
- MIC (Escherichia coli [6]): > 512 µg/mL
- MIC (Staphylococcus aureus [7]): 128 µg/mL (≈ 460 µM)
- MIC (Pseudomonas aeruginosa [8]): 512 µg/mL (≈ 1840 µM)
SMILES: CC/C=C\C/C=C\C/C=C\CCCCCCCC(=O)O [LINOLENIC ACID]

SMILES: C/C=C/C=C/C(=O)O [SORBIC ACID]
- MIC (Enterococcus hirae): 512 µg/mL (≈ 4570 µM)
- MIC (Staphylococcus aureus [1]): > 512 µg/mL
- MIC (Escherichia coli [2]): 512 µg/mL (≈ 4570 µM)
- MIC [3]: > 512 µg/mL
- MIC (Pseudomonas aeruginosa [4]): 512 µg/mL (≈ 4570 µM)
- MIC (Staphylococcus aureus [5]): > 512 µg/mL
- MIC (Escherichia coli [6]): > 512 µg/mL
- MIC (Staphylococcus aureus [7]): > 512 µg/mL
- MIC (Pseudomonas aeruginosa [8]): 512 µg/mL (≈ 4570 µM)

- MIC (Enterococcus hirae): 64 µg/mL (≈ 189 µM)
- MIC (Staphylococcus aureus [1]): > 512 µg/mL
- MIC (Escherichia coli [2]): > 512 µg/mL
- MIC [3]: 256 µg/mL (≈ 756 µM)
- MIC (Pseudomonas aeruginosa [4]): 512 µg/mL (≈ 1510 µM)
- MIC (Staphylococcus aureus [5]): 128 µg/mL (≈ 378 µM)
- MIC (Escherichia coli [6]): 512 µg/mL (≈ 1510 µM)
- MIC (Staphylococcus aureus [7]): > 512 µg/mL
- MIC (Pseudomonas aeruginosa [8]): 512 µg/mL (≈ 1510 µM)
SMILES: CCCCCCCC/C=C\CCCCCCCCCCCC(=O)O [ERUCIC ACID]

SMILES: O=C(O)c1cn(C2CC2)c2cc(N3CCNCC3)c(F)cc2c1=O [CIPROFLOXACIN]
- MIC (Enterococcus hirae): 8 µg/mL (≈ 24.1 µM)
- Activity (SW-620 [9]): Active
- Activity (PC-3 [15]): 14%
- Activity (HaCaT [16]): 6.2 to 12%
- MIC (Staphylococcus aureus [1]): 0.5 µg/mL (≈ 1.51 µM)
- Activity (PC-3 [17]): 16.5%
- MIC [3]: 0.25 µg/mL (≈ 0.754 µM)
- Activity (SW480 [10]): Active
- Activity (PC-3 [18]): 5.3%
- Activity (SW-620 [19]): 9.3%
- Activity (PC-3 [20]): 18%
- Activity (PC-3 [21]): 3.9%
- Activity (SW480 [22]): 14.5%
- Activity (SW480 [23]): 12%
- MIC (Staphylococcus aureus [5]): 0.5 µg/mL (≈ 1.51 µM)
- Activity (SW480 [24]): 14.2%
- Activity (SW480 [25]): 15%
- Activity (PC-3 [26]): 59.7%
- Activity (PC-3 [27]): 31.1%
- Activity (SW-620 [28]): 9.1%
- Activity (HaCaT [11]): Active
- Activity (SW-620 [29]): 31.4 - 39.2%
- Activity (SW-620 [30]): 8.9%
- Activity (SW-620 [31]): 8.1%
- MIC (Staphylococcus aureus [7]): 0.25 µg/mL (≈ 0.754 µM)
- Activity (PC-3 [32]): 17.5%

- MIC (Enterococcus hirae): 512 µg/mL (≈ 2000 µM)
- MIC (Staphylococcus aureus [1]): 512 µg/mL (≈ 2000 µM)
- MIC (Escherichia coli [2]): 512 µg/mL (≈ 2000 µM)
- MIC [3]: 512 µg/mL (≈ 2000 µM)
- MIC (Pseudomonas aeruginosa [4]): 512 µg/mL (≈ 2000 µM)
- MIC (Staphylococcus aureus [5]): 512 µg/mL (≈ 2000 µM)
- MIC (Escherichia coli [6]): 512 µg/mL (≈ 2000 µM)
- MIC (Staphylococcus aureus [7]): 512 µg/mL (≈ 2000 µM)
- MIC (Pseudomonas aeruginosa [8]): 512 µg/mL (≈ 2000 µM)
SMILES: CCCCCCCCCCCCCCCC(=O)O [PALMITIC ACID]

- MIC (Enterococcus hirae): 512 µg/mL (≈ 1810 µM)
- MIC (Staphylococcus aureus [1]): 512 µg/mL (≈ 1810 µM)
- MIC (Escherichia coli [2]): 512 µg/mL (≈ 1810 µM)
- MIC [3]: 512 µg/mL (≈ 1810 µM)
- MIC (Pseudomonas aeruginosa [4]): 512 µg/mL (≈ 1810 µM)
- MIC (Staphylococcus aureus [5]): 512 µg/mL (≈ 1810 µM)
- MIC (Escherichia coli [6]): 512 µg/mL (≈ 1810 µM)
- MIC (Staphylococcus aureus [7]): 512 µg/mL (≈ 1810 µM)
- MIC (Pseudomonas aeruginosa [8]): 512 µg/mL (≈ 1810 µM)
SMILES: CCCCCCCC/C=C/CCCCCCCC(=O)O [ELAIDIC ACID]

- MIC (Enterococcus hirae): 128 to 256 µg/mL (≈ 453 to 906 µM)
- MIC (Staphylococcus aureus [1]): 256 to 512 µg/mL (≈ 906 to 1810 µM)
- MIC (Escherichia coli [2]): 512 µg/mL (≈ 1810 µM)
- MIC [3]: 512 µg/mL (≈ 1810 µM)
- MIC (Pseudomonas aeruginosa [4]): 512 µg/mL (≈ 1810 µM)
- MIC (Staphylococcus aureus [5]): 256 µg/mL (≈ 906 µM)
- MIC (Escherichia coli [6]): 512 µg/mL (≈ 1810 µM)
- MIC (Staphylococcus aureus [7]): 256 to 512 µg/mL (≈ 906 to 1810 µM)
- MIC (Pseudomonas aeruginosa [8]): 256 to 512 µg/mL (≈ 906 to 1810 µM)
SMILES: CCCCCCCC/C=C\CCCCCCCC(=O)O [OLEIC ACID]
